Consider nine molecules from patent publication US20260242419A1, “A CYCLIC PEPTIDE FOR TRAPPING INTERLEUKIN-1 BETA” (Merck Sharp & Dohme LLC, priority 2023, published 2026).

SMILES strings stand for the structures. Where two headings read alike, the source gives them in different places. Starred links: 1 amine or outer side, 2 acyl side, 3 side chain; linkers in the order of their positions; H or OH if unused. Non-standard residues stand in square brackets, D forms with d. Residues, ends and D or L forms follow the SMILES beside them. Groups on a side chain read outwards from the residue. *: point of attachment. dPro(4R-(4-pyridylmethyl)) = O=C(O)[C@H]1C[C@@H](Cc2ccncc2)CN1; Benzoyl(4-piperazinyl) = O=C(c1ccc(N2CCN([*:1])CC2)cc1)[*:2]; Trp(βS-Me,4-F) = C[C@@H](c1c[nH]c2cccc(F)c12)[C@H](N)C(=O)O; Ala(pyrimidin-5-yl) = N[C@@H](Cc1cncnc1)C(=O)O; Phe(4-COOH) = N[C@@H](Cc1ccc(C(=O)O)cc1)C(=O)O; Pro(cis-4-F) = O=C(O)[C@@H]1C[C@H](F)CN1; Cyclohexanecarbonyl = O=C(C1CCCCC1)*; AEF = NCCOc1ccc(C[C@H](N)C(=O)O)cc1; Pyrazinecarbonyl = O=C(c1cnccn1)*; 4Pal = N[C@@H](Cc1ccncc1)C(=O)O; Isonicotinoyl = O=C(c1ccncc1)*; Dab = NCC[C@H](N)C(=O)O; Aib = CC(C)(N)C(=O)O; Inp = O=C(O)C1CCNCC1; Piv = CC(C)(C)C(=O)*; X50 = O=C(c1ccncn1)*; Bz = O=C(c1ccccc1)*; X2 = O=C(c1ncccn1)*

In general, IC50 refers to the concentration that gives 50% inhibition.

The assay has as its target T1, IL-1β (Homo sapiens, UniProt P01584).
T1 construct: purchased BioLegend 579404
Briefly: IL-6 assay in MRC5 cells: inhibition of IL-1β induced IL-6 secretion (AlphaLISA). It counts as cell-based. The settings on record: inhibition of IL-1β induced IL-6 secretion in MRC5 cells, read-out: MRC5 IC50. The method in brief: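 Compound was pre-incubated 1 h at ambient temperature with recombinant human IL-1β at 2λ EC80 before adding human lung fibroblast MRC5 cells (3000/well) in EMEM with 0.025% BSA. After overnight culture at 37 °C, 5% CO2, secreted IL-6 in conditioned medium was measured by AlphaLISA; IC50 from 4-parameter logistic fits.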

Setting [1] is: compound pre-incubated 1 hour with recombinant human IL-1β.

T1 sequence (P01584 117-269): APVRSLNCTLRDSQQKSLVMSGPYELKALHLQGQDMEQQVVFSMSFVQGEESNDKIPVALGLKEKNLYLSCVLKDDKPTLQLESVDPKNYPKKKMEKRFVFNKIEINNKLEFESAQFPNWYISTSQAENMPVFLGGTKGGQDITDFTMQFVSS

Regarding `C[C@@H](c1c[nH]c2cccc(F)c12)[C@@H]1NC(=O)[C@@H]2C[C@H](F)CN2C(=O)CNC(=O)[C@H](Cc2ccc(C(=O)O)cc2)NC(=O)[C@H](Cc2ccncc2)NC(=O)[C@H](Cc2ccc(OCCNC(=O)C(C)(C)C)cc2)NC(=O)[C@H]2C[C@@H](Cc3ccncc3)CN2C(=O)CNC(=O)[C@H](CCN)NC(=O)[C@H](CCC(N)=O)NC(=O)[C@H](Cc2cncnc2)NC(=O)C(C)(C)NC(=O)[C@H](Cc2c[nH]c3ccccc23)NC(=O)[C@H](CO)NC(=O)C(C)(C)NC1=O` [Example 300] (cyclo([AEF](Piv)[4Pal][Phe(4-COOH)]G[Pro(cis-4-F)][Trp(βS-Me,4-F)][Aib]SW[Aib][Ala(pyrimidin-5-yl)]Q[Dab]G[dPro(4R-(4-pyridylmethyl))])), the IC50 under setting [1] amounted to 0.013 nM.
In the case of `C[C@@H](c1c[nH]c2cccc(F)c12)[C@@H]1NC(=O)[C@@H]2C[C@H](F)CN2C(=O)CNC(=O)[C@H](Cc2ccc(C(=O)O)cc2)NC(=O)[C@H](Cc2ccncc2)NC(=O)[C@H](Cc2ccc(OCCNC(=O)C3CCCCC3)cc2)NC(=O)[C@H]2C[C@@H](Cc3ccncc3)CN2C(=O)CNC(=O)[C@H](CCN)NC(=O)[C@H](CCC(N)=O)NC(=O)[C@H](Cc2cncnc2)NC(=O)C(C)(C)NC(=O)[C@H](Cc2c[nH]c3ccccc23)NC(=O)[C@H](CO)NC(=O)C(C)(C)NC1=O` [Example 301] (cyclo([AEF](Cyclohexanecarbonyl)[4Pal][Phe(4-COOH)]G[Pro(cis-4-F)][Trp(βS-Me,4-F)][Aib]SW[Aib][Ala(pyrimidin-5-yl)]Q[Dab]G[dPro(4R-(4-pyridylmethyl))])), under setting [1], the IC50 worked out at 0.017 nM.
For the molecule `CC(=O)N1CCC(C(=O)NCCOc2ccc(C[C@@H]3NC(=O)[C@H]4C[C@@H](Cc5ccncc5)CN4C(=O)CNC(=O)[C@H](CCN)NC(=O)[C@H](CCC(N)=O)NC(=O)[C@H](Cc4cncnc4)NC(=O)C(C)(C)NC(=O)[C@H](Cc4c[nH]c5ccccc45)NC(=O)[C@H](CO)NC(=O)C(C)(C)NC(=O)[C@H]([C@@H](C)c4c[nH]c5cccc(F)c45)NC(=O)[C@@H]4C[C@H](F)CN4C(=O)CNC(=O)[C@H](Cc4ccc(C(=O)O)cc4)NC(=O)[C@H](Cc4ccncc4)NC3=O)cc2)CC1` [Example 302] (cyclo([AEF]([Inp-Ac])[4Pal][Phe(4-COOH)]G[Pro(cis-4-F)][Trp(βS-Me,4-F)][Aib]SW[Aib][Ala(pyrimidin-5-yl)]Q[Dab]G[dPro(4R-(4-pyridylmethyl))])), the IC50 under setting [1] was determined as 0.017 nM.
On the same count and under the same terms, with `C[C@@H](c1c[nH]c2cccc(F)c12)[C@@H]1NC(=O)[C@@H]2C[C@H](F)CN2C(=O)CNC(=O)[C@H](Cc2ccc(C(=O)O)cc2)NC(=O)[C@H](Cc2ccncc2)NC(=O)[C@H](Cc2ccc(OCCNC(=O)c3cnccn3)cc2)NC(=O)[C@H]2C[C@@H](Cc3ccncc3)CN2C(=O)CNC(=O)[C@H](CCN)NC(=O)[C@H](CCC(N)=O)NC(=O)[C@H](Cc2cncnc2)NC(=O)C(C)(C)NC(=O)[C@H](Cc2c[nH]c3ccccc23)NC(=O)[C@H](CO)NC(=O)C(C)(C)NC1=O` [Example 303] (cyclo([AEF](Pyrazinecarbonyl)[4Pal][Phe(4-COOH)]G[Pro(cis-4-F)][Trp(βS-Me,4-F)][Aib]SW[Aib][Ala(pyrimidin-5-yl)]Q[Dab]G[dPro(4R-(4-pyridylmethyl))])) the figure was 0.016 nM.
As to `C[C@@H](c1c[nH]c2cccc(F)c12)[C@@H]1NC(=O)[C@@H]2C[C@H](F)CN2C(=O)CNC(=O)[C@H](Cc2ccc(C(=O)O)cc2)NC(=O)[C@H](Cc2ccncc2)NC(=O)[C@H](Cc2ccc(OCCNC(=O)c3ncccn3)cc2)NC(=O)[C@H]2C[C@@H](Cc3ccncc3)CN2C(=O)CNC(=O)[C@H](CCN)NC(=O)[C@H](CCC(N)=O)NC(=O)[C@H](Cc2cncnc2)NC(=O)C(C)(C)NC(=O)[C@H](Cc2c[nH]c3ccccc23)NC(=O)[C@H](CO)NC(=O)C(C)(C)NC1=O` [Example 304] (cyclo([AEF](X2)[4Pal][Phe(4-COOH)]G[Pro(cis-4-F)][Trp(βS-Me,4-F)][Aib]SW[Aib][Ala(pyrimidin-5-yl)]Q[Dab]G[dPro(4R-(4-pyridylmethyl))])), the IC50 was 0.014 nM.
For the molecule `C[C@@H](c1c[nH]c2cccc(F)c12)[C@@H]1NC(=O)[C@@H]2C[C@H](F)CN2C(=O)CNC(=O)[C@H](Cc2ccc(C(=O)O)cc2)NC(=O)[C@H](Cc2ccncc2)NC(=O)[C@H](Cc2ccc(OCCNC(=O)c3ccncn3)cc2)NC(=O)[C@H]2C[C@@H](Cc3ccncc3)CN2C(=O)CNC(=O)[C@H](CCN)NC(=O)[C@H](CCC(N)=O)NC(=O)[C@H](Cc2cncnc2)NC(=O)C(C)(C)NC(=O)[C@H](Cc2c[nH]c3ccccc23)NC(=O)[C@H](CO)NC(=O)C(C)(C)NC1=O` [Example 305] (cyclo([AEF](X50)[4Pal][Phe(4-COOH)]G[Pro(cis-4-F)][Trp(βS-Me,4-F)][Aib]SW[Aib][Ala(pyrimidin-5-yl)]Q[Dab]G[dPro(4R-(4-pyridylmethyl))])), the IC50 was determined as 0.016 nM.
In the case of `C[C@@H](c1c[nH]c2cccc(F)c12)[C@@H]1NC(=O)[C@@H]2C[C@H](F)CN2C(=O)CNC(=O)[C@H](Cc2ccc(C(=O)O)cc2)NC(=O)[C@H](Cc2ccncc2)NC(=O)[C@H](Cc2ccc(OCCNC(=O)c3ccc(N4CCNCC4)cc3)cc2)NC(=O)[C@H]2C[C@@H](Cc3ccncc3)CN2C(=O)CNC(=O)[C@H](CCN)NC(=O)[C@H](CCC(N)=O)NC(=O)[C@H](Cc2cncnc2)NC(=O)C(C)(C)NC(=O)[C@H](Cc2c[nH]c3ccccc23)NC(=O)[C@H](CO)NC(=O)C(C)(C)NC1=O` [Example 306] (cyclo([AEF](Benzoyl(4-piperazinyl))[4Pal][Phe(4-COOH)]G[Pro(cis-4-F)][Trp(βS-Me,4-F)][Aib]SW[Aib][Ala(pyrimidin-5-yl)]Q[Dab]G[dPro(4R-(4-pyridylmethyl))])), the IC50 stood at 0.02 nM.
The same measure, in the same setting: with `C[C@@H](c1c[nH]c2cccc(F)c12)[C@@H]1NC(=O)[C@@H]2C[C@H](F)CN2C(=O)CNC(=O)[C@H](Cc2ccc(C(=O)O)cc2)NC(=O)[C@H](Cc2ccncc2)NC(=O)[C@H](Cc2ccc(OCCNC(=O)c3ccncc3)cc2)NC(=O)[C@H]2C[C@@H](Cc3ccncc3)CN2C(=O)CNC(=O)[C@H](CCN)NC(=O)[C@H](CCC(N)=O)NC(=O)[C@H](Cc2cncnc2)NC(=O)C(C)(C)NC(=O)[C@H](Cc2c[nH]c3ccccc23)NC(=O)[C@H](CO)NC(=O)C(C)(C)NC1=O` [Example 307] (cyclo([AEF](Isonicotinoyl)[4Pal][Phe(4-COOH)]G[Pro(cis-4-F)][Trp(βS-Me,4-F)][Aib]SW[Aib][Ala(pyrimidin-5-yl)]Q[Dab]G[dPro(4R-(4-pyridylmethyl))])) the figure was 0.018 nM; with `C[C@@H](c1c[nH]c2cccc(F)c12)[C@@H]1NC(=O)[C@@H]2C[C@H](F)CN2C(=O)CNC(=O)[C@H](Cc2ccc(C(=O)O)cc2)NC(=O)[C@H](Cc2ccncc2)NC(=O)[C@H](Cc2ccc(OCCNC(=O)c3ccccc3)cc2)NC(=O)[C@H]2C[C@@H](Cc3ccncc3)CN2C(=O)CNC(=O)[C@H](CCN)NC(=O)[C@H](CCC(N)=O)NC(=O)[C@H](Cc2cncnc2)NC(=O)C(C)(C)NC(=O)[C@H](Cc2c[nH]c3ccccc23)NC(=O)[C@H](CO)NC(=O)C(C)(C)NC1=O` [Example 308] (cyclo([AEF](Bz)[4Pal][Phe(4-COOH)]G[Pro(cis-4-F)][Trp(βS-Me,4-F)][Aib]SW[Aib][Ala(pyrimidin-5-yl)]Q[Dab]G[dPro(4R-(4-pyridylmethyl))])), 0.013 nM.
